# Reference: patent US11578061B2, “Inhibitors of LRRK2 kinase” (Halia Therapeutics, Inc., priority 2021, dated 2023)
# Target: recombinant human LRRK2 (catalytic domain only [amino acids 970-2527], GST-tagged) (Homo sapiens (Human), UniProt Q5S007)
# Experiment: LRRK2 Enzymatic Assay
# Format: biochemical
# Conditions: LRRKtide substrate, [32P]-ATP
# How it was run: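 Radiometric P81 filter-binding read-out of [32P]-ATP transfer to LRRKtide (20 μM) by 30 nM GST-LRRK2 970-2527, 2 h at room temperature after 20 min compound preincubation (10 μM–0.5 nM, 1% DMSO). IC50 derived from % remaining activity versus DMSO.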
# Sequence of recombinant human LRRK2 (catalytic domain only [amino acids 970-2527], GST-tagged) (Q5S007 970-2527): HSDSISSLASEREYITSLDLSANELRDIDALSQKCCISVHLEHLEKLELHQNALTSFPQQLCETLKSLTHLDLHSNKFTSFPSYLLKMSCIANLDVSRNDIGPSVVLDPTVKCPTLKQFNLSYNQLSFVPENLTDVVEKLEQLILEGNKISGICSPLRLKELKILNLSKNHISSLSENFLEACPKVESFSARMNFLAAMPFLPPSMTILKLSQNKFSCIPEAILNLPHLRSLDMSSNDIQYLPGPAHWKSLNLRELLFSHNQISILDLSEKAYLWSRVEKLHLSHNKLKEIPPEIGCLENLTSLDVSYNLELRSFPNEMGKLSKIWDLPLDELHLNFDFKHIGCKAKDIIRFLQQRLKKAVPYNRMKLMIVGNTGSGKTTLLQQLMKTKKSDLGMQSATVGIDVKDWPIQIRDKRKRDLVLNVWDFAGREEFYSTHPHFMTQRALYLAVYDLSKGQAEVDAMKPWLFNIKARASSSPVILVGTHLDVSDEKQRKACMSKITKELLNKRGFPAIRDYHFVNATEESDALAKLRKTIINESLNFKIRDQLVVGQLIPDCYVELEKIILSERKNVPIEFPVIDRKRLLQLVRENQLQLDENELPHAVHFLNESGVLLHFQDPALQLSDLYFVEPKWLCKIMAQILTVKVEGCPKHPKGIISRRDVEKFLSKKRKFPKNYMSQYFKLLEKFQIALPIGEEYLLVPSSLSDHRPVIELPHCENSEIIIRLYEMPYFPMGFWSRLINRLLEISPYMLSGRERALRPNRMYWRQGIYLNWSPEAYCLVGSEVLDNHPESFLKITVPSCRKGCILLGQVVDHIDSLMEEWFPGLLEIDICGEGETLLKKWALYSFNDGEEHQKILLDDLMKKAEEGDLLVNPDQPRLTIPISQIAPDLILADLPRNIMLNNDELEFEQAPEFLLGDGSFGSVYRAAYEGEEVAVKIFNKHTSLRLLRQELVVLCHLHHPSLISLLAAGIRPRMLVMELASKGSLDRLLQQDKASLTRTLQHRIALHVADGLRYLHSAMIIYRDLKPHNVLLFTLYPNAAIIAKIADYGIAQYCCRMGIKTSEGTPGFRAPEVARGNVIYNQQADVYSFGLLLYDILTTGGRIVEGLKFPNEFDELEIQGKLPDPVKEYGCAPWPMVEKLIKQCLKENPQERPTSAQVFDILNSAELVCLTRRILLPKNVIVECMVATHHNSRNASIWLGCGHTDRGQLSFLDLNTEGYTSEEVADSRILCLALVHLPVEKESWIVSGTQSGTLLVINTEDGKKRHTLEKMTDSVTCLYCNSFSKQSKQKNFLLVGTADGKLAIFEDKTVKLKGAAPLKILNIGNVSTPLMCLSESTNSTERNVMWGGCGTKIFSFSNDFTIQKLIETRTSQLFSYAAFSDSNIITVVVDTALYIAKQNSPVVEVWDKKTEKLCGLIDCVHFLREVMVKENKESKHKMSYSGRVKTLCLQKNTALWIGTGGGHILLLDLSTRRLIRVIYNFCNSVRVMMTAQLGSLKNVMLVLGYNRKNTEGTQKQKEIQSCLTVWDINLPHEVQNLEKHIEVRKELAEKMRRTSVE
row,IC50 [nM],SMILES
1,50 to 200,"O=C(N[C@H]1CC[C@H](COc2ccnc(Nc3ccc(N4CCOCC4)cc3)n2)CC1)C(F)(F)F [Example 98, 2,2,2-trifluoro-N-((1R,4R)-4-(((2-((4-morpholino-phenyl)amino)pyrimidin-4-yl)oxy)methyl)cyclohexyl) acetamide]"
2,50 to 200,"CC(=O)N[C@H]1CC[C@H](COc2nc(Nc3ccc(N4CCOCC4)cc3)ncc2C2CC2)CC1 [Example 88, N-((1R,4R)-4-(((5-cyclopropyl-2-((4-morpholinophenyl)amino)pyrimidin-4-yl)oxy)methyl)cyclo-hexyl)acetamide]"
3,< 50,"Cn1cc(Nc2ncc(F)c(OC[C@H]3CC[C@H](O)CC3)n2)cn1 [Example 216, (1R,4R)-4-(((5-fluoro-2-((1-methyl-1H-pyrazol-4-yl)amino)pyrimidin-4-yl)oxy)methyl)cyclohexan-1-ol]"
4,50 to 200,"CC(=O)N[C@H]1CC[C@H](COc2ccnc(Nc3ccc(N4CCOCC4)cc3)n2)CC1 [Example 72, N-((1R,4R)-4-(((2-((4-morpholinophenyl)amino)pyrimidin-4-yl)oxy)methyl)cyclo-hexyl)acetamide]"
5,< 50,"Cc1nn(C(C)(C)C#N)cc1Nc1ncc(Cl)c(OCC2CC(F)(F)C2)n1 [Example 154, 2-(4-((5-chloro-4-((3,3-difluorocyclobutyl)methoxy)pyrimidin-2-yl)amino)-3-methyl-1H-pyrazol-1-yl)-2-methylpropanenitrile]"
6,> 400,CC(=O)N1CC2(CC(COc3nc(Nc4ccc(N5C[C@@H](C)O[C@@H](C)C5)cc4)ncc3F)C2)C1 [Example 97]
7,< 50,"CCc1nn(C)cc1Nc1ncc(F)c(OC[C@H]2CC[C@H](NC(C)=O)CC2)n1 [Example 198, N-((1R,4R)-4-(((2-((3-ethyl-1-methyl-1H-pyrazol-4-yl)amino)-5-fluoropyrimidin-4-yl)oxy)methyl)cyclo-hexyl)acetamide]"
8,50 to 200,"OCC1CCC(COc2ccnc(Nc3ccc(N4CCOCC4)cc3)n2)CC1 (centres unmarked) [Example 139, (4-(((2-((4-morpholinophenyl)amino)pyrimidin-4-yl)oxy)methyl)cyclohexyl)methanol22]"
9,< 50,"OC1CC2(C1)CC(COc1nc(Nc3ccc(N4CCOCC4)cc3)ncc1F)C2 (centres unmarked) [Example 134, 6-(((5-fluoro-2-((4-morpholinophenyl)amino)pyrimidin-4-yl)oxy)methyl)spiro[3.3]heptan-2-ol]"
10,< 50,"CC(C)n1cc(Nc2ncc(F)c(OC[C@H]3CC[C@H](NC(=O)C(F)(F)F)CC3)n2)cn1 [Example 210, 2,2,2-trifluoro-N-((1R,4R)-4-(((5-fluoro-2-((1-isopropyl-1H-pyrazol-4-yl)amino)pyrimidin-4-yl)oxy)methyl)cyclohexyl) acetamide]"
11,< 50,"CC(=O)N[C@H]1CC[C@H](COc2nc(Nc3cnn(C(F)F)c3C)ncc2F)CC1 [Example 200, N-((1R,4R)-4-(((2-((1-(difluoromethyl)-5-methyl-1H-pyrazol-4-yl)amino)-5-fluoropyrimidin-4-yl)oxy)methyl)cyclo-hexyl)acetamide]"
12,< 50,"CC(=O)N[C@H]1CC[C@H](COc2nc(Nc3cn(C(C)(C)C#N)nc3C)ncc2C)CC1 [Example 87, N-((1R,4R)-4-(((2-((1-(2-cyanopropan-2-yl)-3-methyl-1H-pyrazol-4-yl)amino)-5-methylpyrimidin-4-yl)oxy)methyl)cyclo-hexyl)acetamide]"
13,< 50,"Cc1nn(C(C)(C)C#N)cc1Nc1ncc(Cl)c(OCC2CCN(C(=O)C(F)F)CC2)n1 [Example 111, 2-(4-((5-chloro-4-((1-(2,2-difluoro-acetyl)piperidin-4-yl)methoxy)pyrimidin-2-yl)amino)-3-methyl-1H-pyrazol-1-yl)-2-methyl-propanenitrile]"
14,50 to 200,"CC(=O)N[C@H]1CC[C@H](COc2nc(Nc3cnn(C4COC4)c3)ncc2F)CC1 [Example 192, N-((1R,4R)-4-(((5-fluoro-2-((1-(oxetan-3-yl)-1H-pyrazol-4-yl)amino)pyrimidin-4-yl)oxy)methyl)cyclo-hexyl)acetamide]"
15,< 50,"CC(=O)N[C@H]1CC[C@H](COc2nc(Nc3cn(C4CC4)nc3Cl)ncc2F)CC1 [Example 203, N-((1R,4R)-4-(((2-((3-chloro-1-cyclopropyl-1H-pyrazol-4-yl)amino)-5-fluoropyrimidin-4-yl)oxy)methyl)cyclo-hexyl)acetamide]"
16,50 to 200,"Cc1nn(C(C)(C)C#N)cc1Nc1ncc(Cl)c(OCC2CCN(C)CC2)n1 [Example 57, 2-(4-((5-chloro-4-((1-methylpiperidin-4-yl)methoxy)pyrimidin-2-yl)amino)-3-methyl-1H-pyrazol-1-yl)-2-methylpropanenitrile]"
17,< 50,"CC(=O)N[C@H]1CC[C@H](COc2nc(Nc3cn(C(C)C)nc3Cl)ncc2F)CC1 [Example 202, N-((1R,4R)-4-(((2-((3-chloro-1-isopropyl-1H-pyrazol-4-yl)amino)-5-fluoropyrimidin-4-yl)oxy)methyl)cyclo-hexyl)acetamide]"
18,50 to 200,"FC1(F)CCC(COc2nc(Nc3ccc(N4CCOCC4)cc3)ncc2Cl)CC1 [Example 153, 5-chloro-4-((4,4-difluorocyclohexyl)methoxy)-N-(4-morpholinophenyl)pyrimidin-2-amine]"
19,< 50,"Cc1cnc(Nc2ccc(N3C[C@@H](C)O[C@@H](C)C3)cc2)nc1OCC1CCC(O)CC1 (stereo partly drawn) [Example 128, 4-(((2-((4-((2S,6R)-2,6-dimethylmorpholino)phenyl)amino)-5-methylpyrimidin-4-yl)oxy)methyl)cyclohexan-1-ol]"
20,< 50,"C[C@@H]1CN(c2ccc(Nc3ncc(C4CC4)c(OCC4CCC(O)CC4)n3)cc2)C[C@H](C)O1 (stereo partly drawn) [Example 129, 4-(((5-cyclopropyl-2-((4-((2S,6R)-2,6-dimethylmorpholino)phenyl)amino)pyrimidin-4-yl)oxy)methyl)cyclohexan-1-ol]"
21,< 50,"CC(=O)N[C@H]1CC[C@H](COc2nc(Nc3cnn(C(C)(C)C#N)c3)ncc2F)CC1 [Example 186, N-((1R,4R)-4-(((2-((1-(2-cyanopropan-2-yl)-1H-pyrazol-4-yl)amino)-5-fluoropyrimidin-4-yl)oxy)methyl)cyclo-hexyl)acetamide]"
22,50 to 200,"FC(F)(F)CN[C@H]1CC[C@H](COc2ccnc(Nc3ccc(N4CCOCC4)cc3)n2)CC1 [Example 104, N-(4-morpholino-phenyl)-4-(((1R,4R)-4-((2,2,2-trifluoroethyl)amino)cyclohexyl)methoxy) pyrimidin-2-amine]"
23,50 to 200,"CCO[C@H]1CC[C@@H](COc2nc(Nc3ccc(N4C[C@@H](C)O[C@@H](C)C4)cc3)ncc2F)CC1 [Example 276, N-(4-((2S,6R)-2,6-dimethylmorpholino)phenyl)-4-(((1S,4S)-4-ethoxycyclohexyl)methoxy)-5-fluoropyrimidin-2-amine]"
